Patent US20040024043A1, “Method for treating cognitive disorders” (priority 2002, published 2004)
pIC50: −log10 of the molar value. “Also recorded” adds a separate entry of the source.

Legend:
[1] = Randomized, double-blind, placebo-controlled 12-week efficacy study (NPI, CGIC, ADAS-cog, MMSE, CANTAB, ADCS-ADL); assay type: in vivo, patients; conditions: 50 mg BID 2 weeks then 100 mg BID 10 weeks
Source text: A randomized, double-blind, placebo-controlled study is done to measure the efficacy of the (+) phenserine tartrate or formation as in Example 6 in given daily over twelve (12) weeks, in 60 patients diagnosed as having symptoms similar to those caused by Alzheimer's disease (PAD). In this study there was a total of 60 eligible patients with PAD whose primary language is English, and the patients constituted male and female patients between the ages of 50 and 85 years.
Forty patients will receive two weeks of PT and a 50 mg BID dose level, at which time their dose will be escalated to 100 mg BID, where it will remain for the final ten (10) weeks. Concurrently, twenty patients assigned to placebo medication receive matched placebo capsules for the entire 12 week duration of the study. A sufficient number of potential patients are screened to ensure enrollment of 60 eligible cases.
All study participants were evaluated prior to the study (First Level) and periodically throughout using the following standard efficacy tests;
NPI (Neuropsychiatric Inventory,
CGIC (Clinician's Global Impression of Change)
ADAS-cog (Alzheimer's Disease Assessment Scale—cognitive subscale)
MMSE (Mini-Mental State Exam)
CANTAB (Cambridge Neuropsychological Test Automated Battery—
ADCS-ADL (Activities of Daily Living)

[2] = test system: βAPP levels in SK-N-SH cells; assay: βAPP levels by Western blot in neuroblastoma cells; assay type: cell-based; conditions: 0.5 μM to 50 μM, various time intervals up to 16 hours
Method: (§1) The (+) enantiomer of formula I prepared in Example 2 was tested against its phenserine with respect to controlling β-APP levels in and the resulting toxic amyloid protein (Aβ protein) derived from the β-APP-protein by the procedure disclosed in the Shaw et al. Proc. Nat. Acad. Sci. USA (2001), 98 (13), 7605-7610. Pages […] except that the test given below included (+) enantiomer of phenserine as well as phenserine itself so that phenserine and its (+) enantiomer were tested side by side for their effect in reducing the β-APP and Aβ-proteins. The methodology of Shaw et al for carrying out these tests is summarized as follows:
(§2) Drug treatment: SK-N-SH neuroblastoma cells were cultured on 60 mm dishes at a concentration of 3×10^6 cells, and SH-SY-5Y neuroblastoma cells were plated in 100 mm dishes at a concentration of 3×10^5 cells. The cells were allowed to grow in complete media (10% FBS, 2 mM glutamine in DMEM) for 3 to 4 days until they reached 70% confluence. To start the experiment, spent media were removed and replaced with fresh media (DMEM+0.5% FBS) containing 0, 5 or 50 μM of either (−)- or (+)-phenserine, and cells were incubated at 37 C, 5% CO2 for the specific times indicated.
Lysate preparation: At each time point, the spent medium was collected and stored at −70 C for later analysis of secretory βAPP levels. Cell lysates were prepared as reported previously (Lahiri et al., 1997 and 1998). Protein levels of the supernatant were analyzed by the Bradford protein assay (BioRad, Mellville, N.Y.).
Western Blot: Fifteen μg of protein from each sample was laded onto a 10% NuPAGE Bis-Tris gel in 1× NuPAGE MOPS SDS running buffer (NOVEX, San Diego, Calif.) and the proteins separated at 200 V for 45 min. The gels then were transferred onto nitrocellulose at 25 V for 1.5 h. […] Equivalent loading of samples was determined by Ponceau S staining (Sigma, St. Louis, Mo.). Densimetric quantification of the chemiluminesence of blots was undertaken by using a […] and NIH-IMAGE (version 4.1).

[3] = test system: Aβ protein levels in SK-N-SH cells; assay: Total Aβ assay (ELISA) in neuroblastoma cell cultures; assay type: cell-based; conditions: especially after 10 hours
Method: as §1, §2
Total Aβ Assay: Total Aβ peptide levels in SH-SY-5Y and SK-N-SH cultured samples were assayed by a sensitive ELISA (Suzuki et al., 1994). For total Aβ measurements, the a sandwich immunoassay with rabbit polyclonal antibody to residues 1-40 residues of Aβ as a capture antibody for all species of Aβ peptide Aβ1-40 and Aβ1-42 and the monoclonal antibody to 17-25 residues of Aβ was used to detect Aβ peptide levels, and the values were expressed as the mean of six independent assays.

acetylcholinesterase [4] = target: T1, acetylcholinesterase (Homo sapiens, UniProt P22303); conditions: compared with negative enantiomer phenserine; Pei, Greig et al. 1995; cited from earlier work
Target sequence in this assay (P22303 32-614): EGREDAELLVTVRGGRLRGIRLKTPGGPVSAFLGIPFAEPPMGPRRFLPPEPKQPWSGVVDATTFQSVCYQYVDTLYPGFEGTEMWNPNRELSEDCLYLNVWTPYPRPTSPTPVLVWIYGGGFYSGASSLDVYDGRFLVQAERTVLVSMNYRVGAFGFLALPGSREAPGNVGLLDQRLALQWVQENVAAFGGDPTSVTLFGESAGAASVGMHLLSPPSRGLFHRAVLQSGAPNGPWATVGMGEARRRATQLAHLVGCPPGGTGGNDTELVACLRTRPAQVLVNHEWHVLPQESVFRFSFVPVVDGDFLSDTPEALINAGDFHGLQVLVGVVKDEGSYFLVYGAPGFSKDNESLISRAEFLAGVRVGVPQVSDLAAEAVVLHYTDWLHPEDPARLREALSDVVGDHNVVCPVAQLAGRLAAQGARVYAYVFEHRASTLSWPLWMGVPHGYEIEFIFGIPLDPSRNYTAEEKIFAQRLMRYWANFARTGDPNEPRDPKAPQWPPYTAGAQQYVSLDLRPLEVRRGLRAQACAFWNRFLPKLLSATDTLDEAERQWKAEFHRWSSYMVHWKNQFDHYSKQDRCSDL

[5] = In vivo studies: cholinergic side effects after i.p. administration; conditions: rodents
Method: This is a classical central (i.e., brain) cholinergic over-stimulation (overdrive) effect. Such a tremor persisted for approximately 1 hour.

acetylcholinesterase [6] = target: T1, acetylcholinesterase; conditions: as stated in Shaw et al., PNAS 2001; read-out: concentration of compound required to inhibit 50% acetylcholinesterase activity; cited from earlier work
Target sequence in this assay (P22303 32-614, species assumed): as the sequence (P22303 32-614) above

SMILES | level in the efficacy tests at end of twelve weeks versus First Level prior to treatment ([1]; patients with symptoms similar to Alzheimer's disease, oral capsules) | patients with an improvement over First Level at end of twelve-week period ([1]; treated group) | βAPP levels compared to control ([2]; FIGS. 1 and 3) | βAPP levels compared to control ([2]; FIGS. 1 and 3, listed as positive isomer of phenserine) | levels of Aβ protein compared to control ([3]; FIGS. 2 and 3) | levels of Aβ protein compared to control ([3]; FIGS. 2 and 3, listed as positive isomer of phenserine) | activity as an inhibitor of human acetylcholinesterase (acetylcholinesterase [4]) | symptoms observed ([5]; 20 mg/kg) | pIC50 (acetylcholinesterase [6]) | persistence of tremor ([5]; 5 mg/kg) | symptoms observed ([5]; 5 mg/kg (1 ml/kg in isotonic saline)) | symptoms observed ([5]; 7.5 mg/kg) | animals killed when moribund, of 5 treated animals ([5]; 20 mg/kg)
CN1CC[C@]2(C)c3cc(OC(=O)Nc4ccccc4)ccc3N(C)[C@H]12.O=C(O)C(O)C(O)C(=O)O (single isomer, unassigned) [(+) phenserine tartrate, tartaric acid salt of the +enantiomer of N-phenyl carbanoyl eseroline] | maintain a level at least as great as the First Level | about 30% | – | – | – | – | – | – | – | – | – | – | –
CN1CC[C@]2(C)c3cc(OC(=O)Nc4ccccc4)ccc3N(C)C12 (single isomer, unassigned; (+)) [(+)-phenserine, (+) 9-N-phenylcarbinol esroline] | – | – | effective in reducing | reduces the production | effective in reducing | reduces the production | far less active | entirely without symptoms | < 4.60 | – | – | – | –
CN1CC[C@@]2(C)c3cc(OC(=O)Nc4ccccc4)ccc3N(C)C12 (single isomer, unassigned; (-)) [(−)-phenserine, (−) N-(−)-N phenyl canbamoyleseroline] | – | – | reduces secreted and cellular βAPP levels in a concentration dependent manner; also recorded: decreased the βAPP levels | – | reduced Aβ protein levels; also recorded: substantially reduced | – | – | incapacitated by severe tremor and peripheral side effects | – | approximately 1 hour | fine tremor | Tremor, together with symptoms of peripheral over-stimulation (specifically, lacrimation and salivation) | 2
